Source: patent US20170173114A1, “METHODS AND COMPOSITIONS FOR INDUCTION OF UCP1 EXPRESSION” (Joslin Diabetes Center, Inc., priority 2014, published 2017)

Assays:
Format in all cases: cell-based, murine
WT-1 brown preadipocytes [1] = assay: 2-deoxy-[3H]glucose uptake in WT-1 brown preadipocytes; details: growth media, two days
Description: The following glucose uptake assay was used to determine whether FGF6 could impact cellular glucose uptake. Specifically, glucose uptake was monitored in WT-1 brown preadipocytes and 3T3-F442A white preadipocytes in the presence or absence of FGF6. After serum starvation in DMEM/H medium containing 1% of BSA for 2-3 h, cells were washed with HEPES buffer and then incubated with or without 100 nM insulin for 30 min in DMEM/H medium containing 1% of BSA. Glucose transport was determined by the addition of 2-deoxy-[3H]glucose (0.1 mM, 0.5 μCi/mL; PerkinElmer Life and Analytical Science, Waltham, Mass.). After 5 minutes of incubation, the reaction was stopped by ice-cold PBS and cells were washed twice with ice-cold PBS. Cells were then lysed in 0.1% SDS, and glucose uptake was assessed in 4 mL of scintillant using Beckman LS6500 scintillation counter (Beckman Coulter, Indianapolis Ind.). Nonspecific 2-deoxy-[3H]glucose uptake was measured in the presence of cytochalasin B (20 μM) and was subtracted from the total uptake to get specific glucose uptake. Results were expressed as the mean±s.e.m. of the indicated number of experiments. The protein content was determined by the Bradford method.
(§1) The role of PGs in regulating mitochondrial function and cellular glucose uptake was also assessed. […]

WT-1 brown preadipocytes [2] = assay: Seahorse Bioanalyzer cellular respiration in WT-1 brown preadipocytes; details: growth media, two days
Excerpt: The Seahorse XF24 (Seahorse Bioscience, http://www.seahorsebio.com/) was utilized for respirometry to measure oxygen consumption rates (OCR; indicating oxidative phosphorylation) and extracellular acidification rates (ECAR; indicating extracellular pH) in mature brown adipocytes. The cell plates and assay cartridges for the Seahorse XF24 have four ports allowing for drug delivery to individual wells during measurement of the metabolic parameters. For a typical bioenergetic profile, cells are first treated with oligomycin to block ATP synthase, FCCP as an uncoupler and Rotenone to block Complex 1 of the ETC (all from Sigma). Example 2 provides additional details regarding the general method. […]
A profile of cellular respiration was developed by utilizing well-characterized mitochondrial toxins, as described in FIG. 5B. First, basal respiration was measured, followed by injection of oligomycin (an inhibitor of ATP synthase which allows measurement of ATP turnover). Then, the uncoupler FCCP (carbonilcyanide p-triflouromethoxyphenylhydrazone) was injected to measure respiratory capacity, followed by the complex 1 inhibitor rotenone (which prevents electron transfer activity and leaves only non-mitochondrial activity to be measured). […]
as §1

LDHA, PDK1, PKM2 = assay: LDHA, PDK1 and PKM2 mRNA expression in WT-1 cells; details: WT-1, 24 hours; vs vehicle
Description: (§2) To test the role of specific prostaglandins (PGs) in activating UCP1 expression, WT-1 brown adipocytes were pretreated with PGE2, PGI2 and FGF6 for 24 hours. mRNA expression levels of UCP1, PTGS2, LDHA, PDK1 and PKM2 were then measured.

PTGS2 (COX2) = assay: PTGS2 mRNA / COX2 protein expression in WT-1 brown preadipocytes; details: WT-1, 24 hours; vs vehicle
Description: Total RNA was isolated with QIAzol lysis reagent (Qiagen, Valencia, Calif.) and purified by RNeasy Mini columns (Qiagen) following the manufacture's instructions. cDNA was prepared from total RNA using the Advantage RT-PCR kit (BD Biosciences, Palo Alto, Calif.) according to manufacturer's instructions. Diluted cDNA was used in a PCR reaction with SYBR Green Master Mix (Applied Biosystems, Foster City, Calif.) and primers specifically designed for detection of the gene of interest. PCR reactions were run in duplicate for each sample and quantitated in the ABI Sequence Detection System (Applied Biosystems). Data were expressed as arbitrary units after normalization to levels of expression of internal controls for each sample. Sequences of primers for specific genes are each obtained from the published literature or designed using publically available gene sequence databases. Unless otherwise indicated, gene expression data described in the examples below was obtained using QPCR.
Cells were harvested in lysis buffer (50 mM HEPES, 137 mM NaCl, 1 mM MgCl2, 1 mM CaCl2, 10 mM Na2P2O7, 10 mM NaF, 2 mM EDTA, 10% glycerol, 1% Igepal CA-630, 2 mM vanadate, 10 μg/ml of leupeptin, 10 μg/ml of aprotinin, 2 mM phenylmethylsulfonyl fluoride; pH 7.4). After lysis, lysates were clarified by centrifugation at 12,000×g for 20 min at 4° C., the amount of protein in the supernatants was determined by the Bradford Protein Assay (Bio-Rad Laboratories, Hercules, Calif.). Proteins were directly solubilized in Laemmli sample buffer. Equal amounts of lysates were separated by sodium dodecyl sulfate-polyacrylamide gel electrophoresis and transferred to Immobolin-P membranes. […] Specifically bound primary antibodies were detected with peroxidase-coupled secondary antibody and enhanced chemiluminescence (ECL, Amersham Biosciences, Piscataway, N.J.).
To determine if FGF4, FGF5, FGF6, FGF10, FGF16, FGF17, FGF18 or FGF20 induced either UCP1 mRNA or PTGS2 mRNA expression, murine brown preadipocyte WT-1 cells (Tseng et al., Nat. Cell. Biol. (2005) 7(6):601-611) were grown in growth media (DMEM-high glucose+10% FBS) supplemented with FGF4, FGF5, FGF6, FGF10, FGF16, FGF17, FGF18, FGF20 or buffer (control) in combination with insulin (20 nM) and triidothyronine (T3, 1 nM) for three days. All FGFs were used at a dosage of 200 ng/mL. mRNA was isolated and UCP1 and PTGS2 gene expression levels were evaluated by quantitative reverse transcription polymerase chain reaction (Q-RT-PCR) analysis. […]
as §2

SMILES | glucose uptake in WT-1 brown preadipocytes (WT-1 brown preadipocytes [1]) | oxygen consumption in WT-1 brown preadipocytes (WT-1 brown preadipocytes [2]) | LDHA mRNA expression (LDHA, PDK1, PKM2) | PDK1 mRNA expression (LDHA, PDK1, PKM2) | PKM2 mRNA expression (LDHA, PDK1, PKM2) | PTGS2 mRNA expression (PTGS2 (COX2))
CCCCC[C@H](O)/C=C/[C@H]1[C@H](O)CC(=O)[C@@H]1C/C=C\CCCC(=O)O [PGE2, reference compound] | enhanced | enhanced | increase | increase | increase | significantly induced
CCCCC[C@H](O)/C=C/[C@@H]1[C@H]2C/C(=C/CCCC(=O)O)O[C@H]2C[C@H]1O [PGI2, reference compound] | enhanced | enhanced | increase | increase | increase | significantly induced
